# According to patent US12558356B2, “Immunophilin binding agents and uses thereof” (The Regents of the University of California, priority 2019, dated 2026):
# Assays:
# Ras•GDP / Sos = Ras•GDP / Sos (Homo sapiens (Human), UniProt P01112+P62937, M72C); assay: HRAS/CypA ternary complex and Sos-mediated nucleotide exchange; format: biochemical
# Description: FIG. 56. […] Assay conditions: 1 μM Ras•GDP, 1 μM Mant-GDP, 20 mM EPES 7.5, 150 mM NaCl, 10 mM EDTA or 1 μM Sos. 95A is synonymous to ZZY06-031.
# Ras•Raf = Ras•Raf binding pulldown; details: 100 nM KRAS
# Description: FIG. 57. […] Pulldown conditions: 100 nM KRAS, 50 μg/mL BSA, 20 mM HEPES 7.5, 150 mM NaCl, 5 mM MgCl2, 1 mM […], 1% NP-40. GppNHp loaded proteins were prepared by EDTA-mediated nucleotide exchange.
smiles,measurement,setting,value
C=CC(=O)Nc1cc(Cl)cc(NC(=O)c2cnn(-c3ccc(OCC(=O)N4CCN(C(=O)CCC[C@@H](C)[C@@H](O)[C@H]5C(=O)N[C@@H](CC)C(=O)N(C)CC(=O)N(C)[C@@H](CC(C)C)C(=O)N[C@@H](C(C)C)C(=O)N(C)[C@@H](CC(C)C)C(=O)N[C@@H](C)C(=O)N[C@H](C)C(=O)N(C)[C@@H](CC(C)C)C(=O)N(C)[C@@H](CC(C)C)C(=O)N(C)[C@@H](C(C)C)C(=O)N5C)CC4)cc3)c2C(F)(F)F)c1 [ZZY08-058],ternary complex formation with HRAS and CypA,Ras•GDP / Sos,forms a ternary complex
same,Sos-mediated nucleotide exchange,"Ras•GDP / Sos; 1 μM Ras•GDP, 1 μM Mant-GDP, 10 mM EDTA or 1 μM Sos",inhibits Sos-mediated nucleotide exchange
same,Ras•Raf binding of HRAS•CypA•compound ternary complex,Ras•Raf,does not seem to impair Ras•Raf binding
